{
  "source": "patent US9643917B2",
  "about": "“Water-soluble propofol derivatives and uses thereof” (JIANGSU NHWALUOKANG PHARMCEUTICAL RESEARCH AND DEVELOPMENT …, priority 2014, dated 2017)",
  "key": {"physchem": {"experiment": "physchem", "conditions": "physiological saline, saline or isotonic"}, "[1]": {"conditions": "rabbit plasma, 37° C., HPLC", "method": "(§1) 0.1 ml samples were taken from each of the solutions, added respectively to 1 ml of blood plasma of rabbit (taken from New Zealand white rabbits, treated according to conventional methods, anticoagulated with heparin) or 1 ml of blood plasma of rat (taken from live SD rats, processed according to conventional methods, anti coagulated with heparin), homogeneously mixed, and placed in a thermostatic water bath at 37° C. for incubation with time being recorded. Samples were taken at different time points after the experiment began, and 2 ml of acetonitrile was immediately added. The samples were shaken and centrifuged for 5 min (15,000 rpm), and the supernatant was then taken for HPLC analysis."}, "[2]": {"conditions": "rat plasma, 37° C., HPLC", "method": "as §1"}, "Kunming mice": {"tested_on": "Kunming mice", "conditions": "tail intravenous injection, n = 5", "method": "Rats and mice were administered with samples having a fixed concentration of drugs, while the volume of administration altered according to actual situation. The volume of administration to rabbits was 1 mL/kg body weight.\nThe periods during which the righting reflex of mice disappeared (latent period) and recovered (persistent period) were recorded."}, "KM mice": {"tested_on": "KM mice", "conditions": "for TI Mouse: TI=LD50/ED50, mouse; for Mouse ED50: disappearance of righting reflex, caudal vein injection", "method": "(§2) Test samples for the experiment on rabbit were formulated to have corresponding concentrations based on the results from a preliminary test. […] Rats and mice were administered with samples having a fixed concentration of drugs, while the volume of administration altered according to actual situation. The volume of administration to rabbits was 1 mL/kg body weight.\n(§3) ED50 and LD50 values concerning anesthesia were determined using a sequential method. Healthy KM mice (male), SD rats (male) and New Zealand White rabbits were used for test. […] For rabbits, the compounds were administered by injection at a constant rate via ear vein for 30 seconds. Before the test, a preliminary test was conducted to determine an approximate dosage (volume of administration) that leads to anesthetization (or death) of animals, which was set as the middle dosage in the formal test. […] The disappearance of righting reflex or death was used as indicators of pharmacological efficacy or toxicity, respectively. The formal test began with the administration of the middle dosage. If animals were anesthetized, a lower dosage was administered; if animals were not anesthetized, a higher dosage was administered, until the cycle was repeated for 3-4 times. LD50 and ED50 were calculated by a sequential method aot425 software. TI was calculated according to the following equation: TI=LD50/ED50."}, "SD rats": {"tested_on": "SD rats", "conditions": "for TI Rat: TI=LD50/ED50, rat; for Rat ED50: disappearance of righting reflex, caudal vein injection", "method": "as §2, §3"}, "[3]": {"tested_on": "New Zealand White rabbits", "conditions": "TI=LD50/ED50, rabbit", "method": "as §2, §3"}, "in vivo [4]": {"experiment": "in vivo", "conditions": "male, SD, rat, intravenous, caudal vein injection", "method": "as §2, §3"}, "in vivo [5]": {"experiment": "in vivo", "conditions": "male, KM, mouse, intravenous, caudal vein injection, confirmation test", "method": "as §2, §3"}, "[6]": {"conditions": "dosage 2 * ED50, 3 mg/ml solution"}, "[7]": {"conditions": "dosage 2 * ED50, 6 mg/ml solution"}, "[8]": {"conditions": "3 mg/ml solution, confirmation test"}, "[9]": {"conditions": "3 mg/ml solution, first test (*)"}, "[10]": {"conditions": "6 mg/ml solution, confirmation test"}, "[11]": {"conditions": "6 mg/ml solution, first test (*)"}},
  "note": "Where a name gives a salt, the structure may show the parent alone. Read-outs that look alike come from different tables or passages of the source. Marks after values point to notes of the source that are not given here.",
  "data": [
    {"molecule": "CC(C)c1cccc(C(C)C)c1OC(=O)C(F)CCN(C)C", "note": "(racemic) [E1, Propofol 4-(N,N-dimethyl)amino-2-(R,S)-fluorobutyrate hydrochloride]", "values": [
      {"measurement": "solubility", "setting": "physchem", "value": "> 20", "unit": "mg/mL"},
      {"measurement": "Dissociation percent 15 s", "setting": "[1]", "value": 67.5, "unit": "%"},
      {"measurement": "Dissociation percent 30 s", "setting": "[1]", "value": 85.5, "unit": "%"},
      {"measurement": "Dissociation percent 5 s", "setting": "[2]", "value": 75.1, "unit": "%"},
      {"measurement": "Dissociation percent 15 s", "setting": "[2]", "value": 83.2, "unit": "%"},
      {"measurement": "Dissociation percent 30 s", "setting": "[2]", "value": 96.7, "unit": "%"}
    ]},
    {"molecule": "CC(C)c1cccc(C(C)C)c1OC(=O)[C@H](F)CCN(C)C.Cl", "note": "[E2, Propofol 4-(N,N-dimethyl)amino-2-(R)-fluorobutyrate hydrochloride]", "values": [
      {"measurement": "Latent Period", "setting": "Kunming mice; [6]", "value": "14.6 ± 0.9", "unit": "s"},
      {"measurement": "Persistent period", "setting": "Kunming mice; [6]", "value": "383.6 ± 242.1", "unit": "s"},
      {"measurement": "Latent Period", "setting": "Kunming mice; [7]", "value": "14.2 ± 1.9", "unit": "s"},
      {"measurement": "Persistent period", "setting": "Kunming mice; [7]", "value": "543 ± 231", "unit": "s"},
      {"measurement": "TI Mouse", "setting": "KM mice; [8]", "value": 3},
      {"measurement": "TI Mouse", "setting": "KM mice; [9]", "value": "4*"},
      {"measurement": "TI Mouse", "setting": "KM mice; [10]", "value": 3.7},
      {"measurement": "TI Mouse", "setting": "KM mice; [11]", "value": "3.6*"},
      {"measurement": "Mouse ED50", "setting": "KM mice; [8]", "value": 15.4, "unit": "mg/kg"},
      {"measurement": "Mouse ED50", "setting": "KM mice; [9]", "value": 17.9, "unit": "mg/kg"},
      {"measurement": "Mouse ED50", "setting": "KM mice; [10]", "value": 13.0, "unit": "mg/kg"},
      {"measurement": "Mouse ED50", "setting": "KM mice; [11]", "value": 15.2, "unit": "mg/kg"},
      {"measurement": "TI Rat", "setting": "SD rats; 3 mg/ml solution", "value": 3.8},
      {"measurement": "TI Rat", "setting": "SD rats; 6 mg/ml solution", "value": 3.1},
      {"measurement": "Rat ED50", "setting": "SD rats; 3 mg/ml solution", "value": 9.8, "unit": "mg/kg"},
      {"measurement": "Rat ED50", "setting": "SD rats; 6 mg/ml solution", "value": 10.1, "unit": "mg/kg"},
      {"measurement": "Dissociation percent 15 s", "setting": "[1]", "value": 97.7, "unit": "%"},
      {"measurement": "Dissociation percent 30 s", "setting": "[1]", "value": 100, "unit": "%"},
      {"measurement": "TI index", "setting": "[3]", "value": 3.5},
      {"measurement": "Dissociation percent 5 s", "setting": "[2]", "value": 100, "unit": "%"}
    ]},
    {"molecule": "CC(C)c1cccc(C(C)C)c1OC(=O)C(F)CC(=O)[O-].[Na+]", "note": "[F7, Propofol-2-(R)-fluorobutyrate monoester sodium salt]", "values": [
      {"measurement": "Latent Period", "setting": "Kunming mice; [6]", "value": "20.2 ± 0.6", "unit": "s"},
      {"measurement": "Persistent period", "setting": "Kunming mice; [6]", "value": "335.5 ± 218.1", "unit": "s"},
      {"measurement": "Latent Period", "setting": "Kunming mice; [7]", "value": "16.2 ± 2.2", "unit": "s"},
      {"measurement": "Persistent period", "setting": "Kunming mice; [7]", "value": "517 ± 231", "unit": "s"},
      {"measurement": "TI Mouse", "setting": "KM mice; [8]", "value": 2.6},
      {"measurement": "TI Mouse", "setting": "KM mice; [9]", "value": "2.8*"},
      {"measurement": "TI Mouse", "setting": "KM mice; [10]", "value": 3.1},
      {"measurement": "TI Mouse", "setting": "KM mice; [11]", "value": "2.4*"},
      {"measurement": "Mouse ED50", "setting": "KM mice; [8]", "value": 19.2, "unit": "mg/kg"},
      {"measurement": "Mouse ED50", "setting": "KM mice; [9]", "value": 21.4, "unit": "mg/kg"},
      {"measurement": "Mouse ED50", "setting": "KM mice; [10]", "value": 18.1, "unit": "mg/kg"},
      {"measurement": "Mouse ED50", "setting": "KM mice; [11]", "value": 20.7, "unit": "mg/kg"},
      {"measurement": "TI Rat", "setting": "SD rats; 3 mg/ml solution", "value": 3.0},
      {"measurement": "TI Rat", "setting": "SD rats; 6 mg/ml solution", "value": 3.5},
      {"measurement": "Rat ED50", "setting": "SD rats; 3 mg/ml solution", "value": 15.7, "unit": "mg/kg"},
      {"measurement": "Rat ED50", "setting": "SD rats; 6 mg/ml solution", "value": 12.5, "unit": "mg/kg"},
      {"measurement": "Dissociation percent 15 s", "setting": "[1]", "value": 46.3, "unit": "%"},
      {"measurement": "Dissociation percent 30 s", "setting": "[1]", "value": 72.8, "unit": "%"},
      {"measurement": "TI index", "setting": "[3]", "value": 2.6},
      {"measurement": "Dissociation percent 5 s", "setting": "[2]", "value": 58.8, "unit": "%"},
      {"measurement": "Dissociation percent 15 s", "setting": "[2]", "value": 71.3, "unit": "%"},
      {"measurement": "Dissociation percent 30 s", "setting": "[2]", "value": 85.4, "unit": "%"}
    ]},
    {"molecule": "CC(C)c1cccc(C(C)C)c1OC(=O)[C@@H](F)CCOP(=O)([O-])[O-].[Na+].[Na+]", "note": "[G2, {1-[4-(2,6-diisopropylphenoxy)-4-oxo-3-(S)-3-fluoro-1-butyl]} phosphate monoester disodium salt]", "values": [
      {"measurement": "Latent Period", "setting": "Kunming mice; [6]", "value": "16.3 ± 0.8", "unit": "s"},
      {"measurement": "Persistent period", "setting": "Kunming mice; [6]", "value": "383.6 ± 242.1", "unit": "s"},
      {"measurement": "Latent Period", "setting": "Kunming mice; [7]", "value": "15.7 ± 2.3", "unit": "s"},
      {"measurement": "Persistent period", "setting": "Kunming mice; [7]", "value": "571 ± 173", "unit": "s"},
      {"measurement": "TI Mouse", "setting": "KM mice; [8]", "value": 3.0},
      {"measurement": "TI Mouse", "setting": "KM mice; [9]", "value": "2.8*"},
      {"measurement": "TI Mouse", "setting": "KM mice; [10]", "value": 2.3},
      {"measurement": "TI Mouse", "setting": "KM mice; [11]", "value": "1.9*"},
      {"measurement": "Mouse ED50", "setting": "KM mice; [8]", "value": 19.8, "unit": "mg/kg"},
      {"measurement": "Mouse ED50", "setting": "KM mice; [9]", "value": 23.7, "unit": "mg/kg"},
      {"measurement": "Mouse ED50", "setting": "KM mice; [10]", "value": 22.8, "unit": "mg/kg"},
      {"measurement": "Mouse ED50", "setting": "KM mice; [11]", "value": 25.6, "unit": "mg/kg"},
      {"measurement": "TI Rat", "setting": "SD rats; 3 mg/ml solution", "value": 3.3},
      {"measurement": "TI Rat", "setting": "SD rats; 6 mg/ml solution", "value": 2.8},
      {"measurement": "Rat ED50", "setting": "SD rats; 6 mg/ml solution", "value": 21.1, "unit": "mg/kg"},
      {"measurement": "Dissociation percent 15 s", "setting": "[1]", "value": 37.2, "unit": "%"},
      {"measurement": "Dissociation percent 30 s", "setting": "[1]", "value": 54.3, "unit": "%"},
      {"measurement": "Dissociation percent 5 s", "setting": "[2]", "value": 48.5, "unit": "%"},
      {"measurement": "Dissociation percent 15 s", "setting": "[2]", "value": 69.7, "unit": "%"}
    ]},
    {"molecule": "CC(C)c1cccc(C(C)C)c1O", "note": "[Propofol, 2,6-diisopropylphenol]", "values": [
      {"measurement": "LD50", "setting": "in vivo [4]; 3 mg/ml solution", "value": 21.5, "unit": "mg/kg"},
      {"measurement": "LD50", "setting": "in vivo [4]; 6 mg/ml solution", "value": 17.4, "unit": "mg/kg"},
      {"measurement": "TI Mouse", "setting": "KM mice; [8]", "value": 4.9},
      {"measurement": "TI Mouse", "setting": "KM mice; [10]", "value": 3.8},
      {"measurement": "TI Rat", "setting": "SD rats; 3 mg/ml solution", "value": 5.5},
      {"measurement": "TI Rat", "setting": "SD rats; 6 mg/ml solution", "value": 4.9},
      {"measurement": "LD50", "setting": "in vivo [5]; 3 mg/ml solution", "value": 38.4, "unit": "mg/kg"},
      {"measurement": "LD50", "setting": "in vivo [5]; 6 mg/ml solution", "value": 42.9, "unit": "mg/kg"}
    ]}
  ]
}
